Results reported in ChEMBL document CHEMBL4507266, “Data for DCP probe BAY-784” (2021).

Key:
[1] = target: Mitogen-activated protein kinase kinase kinase 5 (Homo sapiens) (UniProt Q99683); details: Compound concentration 1000.0 nM
[2] = target: Mitogen-activated protein kinase kinase kinase 6 (Homo sapiens) (UniProt O95382); details: Compound concentration 1000.0 nM
[3] = target: Serine/threonine-protein kinase BRSK1 (Homo sapiens) (UniProt Q8TDC3); details: Compound concentration 1000.0 nM
[4] = target: Mitotic checkpoint serine/threonine-protein kinase BUB1 (Homo sapiens) (UniProt O43683); details: Compound concentration 1000.0 nM
[5] = target: Calcium/calmodulin-dependent protein kinase type 1B (Homo sapiens) (UniProt Q6P2M8); details: Compound concentration 1000.0 nM
[6] = target: Calcium/calmodulin-dependent protein kinase type 1G (Homo sapiens) (UniProt Q96NX5); details: Compound concentration 1000.0 nM
Sequence of Calcium/calmodulin-dependent protein kinase type 1G (Homo sapiens) (Q96NX5 whole entry): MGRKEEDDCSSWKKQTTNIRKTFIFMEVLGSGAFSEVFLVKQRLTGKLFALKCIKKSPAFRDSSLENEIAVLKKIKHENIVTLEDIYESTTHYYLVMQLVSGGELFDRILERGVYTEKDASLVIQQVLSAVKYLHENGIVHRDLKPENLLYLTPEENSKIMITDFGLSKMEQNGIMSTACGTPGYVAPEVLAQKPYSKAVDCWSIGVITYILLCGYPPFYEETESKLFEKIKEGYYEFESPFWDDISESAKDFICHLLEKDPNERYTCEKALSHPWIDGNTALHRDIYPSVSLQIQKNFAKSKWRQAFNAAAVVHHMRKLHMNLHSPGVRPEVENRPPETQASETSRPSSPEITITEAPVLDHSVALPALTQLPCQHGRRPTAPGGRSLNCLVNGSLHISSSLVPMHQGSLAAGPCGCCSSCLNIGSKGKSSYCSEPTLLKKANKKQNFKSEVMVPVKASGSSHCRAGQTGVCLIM

[7] = target: Cyclin-dependent kinase 3 (Homo sapiens) (UniProt Q00526); details: Compound concentration 1000.0 nM
[8] = target: Cyclin-dependent kinase 4 (Homo sapiens) (UniProt P11802); details: Compound concentration 1000.0 nM
[9] = target: Cyclin-dependent kinase 8 (Homo sapiens) (UniProt P49336); details: Compound concentration 1000.0 nM
[10] = target: Cyclin-dependent kinase-like 5 (Homo sapiens) (UniProt O76039); details: Compound concentration 1000.0 nM
[11] = target: Casein kinase II subunit alpha (Homo sapiens) (UniProt P68400); details: Compound concentration 1000.0 nM
[12] = target: Death-associated protein kinase 1 (Homo sapiens) (UniProt P53355); details: Compound concentration 1000.0 nM
[13] = target: Discoidin domain-containing receptor 2 (Homo sapiens) (UniProt Q16832); details: Compound concentration 1000.0 nM
[14] = test system: Epidermal growth factor receptor (Homo sapiens), P00533 [G719S]; details: Compound concentration 1000.0 nM
[15] = test system: Epidermal growth factor receptor (Homo sapiens), P00533 [UNDEFINED MUTATION]; details: Compound concentration 1000.0 nM
[16] = target: Eukaryotic translation initiation factor 2-alpha kinase 1 (Homo sapiens) (UniProt Q9BQI3); details: Compound concentration 1000.0 nM
[17] = target: Ephrin type-A receptor 5 (Homo sapiens) (UniProt P54756); details: Compound concentration 1000.0 nM
Sequence of Ephrin type-A receptor 5 (Homo sapiens) (P54756 whole entry): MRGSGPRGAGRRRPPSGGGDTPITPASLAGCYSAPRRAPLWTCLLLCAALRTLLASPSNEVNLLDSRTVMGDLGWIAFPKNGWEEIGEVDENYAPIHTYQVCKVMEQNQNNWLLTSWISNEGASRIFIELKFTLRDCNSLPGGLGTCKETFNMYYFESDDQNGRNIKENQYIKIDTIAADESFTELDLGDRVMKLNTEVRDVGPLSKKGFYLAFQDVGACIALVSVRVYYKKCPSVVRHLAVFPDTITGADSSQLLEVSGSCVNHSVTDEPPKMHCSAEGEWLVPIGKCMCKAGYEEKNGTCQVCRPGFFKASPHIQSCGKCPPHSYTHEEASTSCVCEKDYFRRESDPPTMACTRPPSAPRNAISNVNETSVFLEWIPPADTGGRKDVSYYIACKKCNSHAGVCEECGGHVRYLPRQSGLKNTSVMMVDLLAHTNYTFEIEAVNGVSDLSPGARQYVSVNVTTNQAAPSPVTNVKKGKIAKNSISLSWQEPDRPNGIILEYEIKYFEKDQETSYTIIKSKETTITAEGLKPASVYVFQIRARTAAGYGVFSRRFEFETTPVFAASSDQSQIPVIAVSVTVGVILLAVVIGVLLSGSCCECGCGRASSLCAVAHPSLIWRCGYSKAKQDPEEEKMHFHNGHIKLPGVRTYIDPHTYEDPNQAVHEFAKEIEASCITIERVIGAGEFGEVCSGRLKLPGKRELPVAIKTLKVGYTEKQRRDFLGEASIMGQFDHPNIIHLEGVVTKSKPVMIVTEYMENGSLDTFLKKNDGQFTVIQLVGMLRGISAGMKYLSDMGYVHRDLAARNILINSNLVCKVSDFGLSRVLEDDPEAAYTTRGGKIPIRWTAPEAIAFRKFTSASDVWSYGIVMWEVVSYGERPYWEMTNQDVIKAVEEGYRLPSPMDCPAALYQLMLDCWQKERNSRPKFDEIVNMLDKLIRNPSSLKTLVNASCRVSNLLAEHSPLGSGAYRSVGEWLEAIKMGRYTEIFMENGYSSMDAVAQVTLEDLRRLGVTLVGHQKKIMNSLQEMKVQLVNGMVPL

[18] = target: Mitogen-activated protein kinase 1 (Homo sapiens) (UniProt P28482); details: Compound concentration 1000.0 nM
[19] = target: Tyrosine-protein kinase Fer (Homo sapiens) (UniProt P16591); details: Compound concentration 1000.0 nM
[20] = test system: Receptor-type tyrosine-protein kinase FLT3 (Homo sapiens), P36888 [UNDEFINED MUTATION]; details: Compound concentration 1000.0 nM
Sequence of Receptor-type tyrosine-protein kinase FLT3 (Homo sapiens), P36888 [UNDEFINED MUTATION] (P36888 whole entry, looked up, change not shown): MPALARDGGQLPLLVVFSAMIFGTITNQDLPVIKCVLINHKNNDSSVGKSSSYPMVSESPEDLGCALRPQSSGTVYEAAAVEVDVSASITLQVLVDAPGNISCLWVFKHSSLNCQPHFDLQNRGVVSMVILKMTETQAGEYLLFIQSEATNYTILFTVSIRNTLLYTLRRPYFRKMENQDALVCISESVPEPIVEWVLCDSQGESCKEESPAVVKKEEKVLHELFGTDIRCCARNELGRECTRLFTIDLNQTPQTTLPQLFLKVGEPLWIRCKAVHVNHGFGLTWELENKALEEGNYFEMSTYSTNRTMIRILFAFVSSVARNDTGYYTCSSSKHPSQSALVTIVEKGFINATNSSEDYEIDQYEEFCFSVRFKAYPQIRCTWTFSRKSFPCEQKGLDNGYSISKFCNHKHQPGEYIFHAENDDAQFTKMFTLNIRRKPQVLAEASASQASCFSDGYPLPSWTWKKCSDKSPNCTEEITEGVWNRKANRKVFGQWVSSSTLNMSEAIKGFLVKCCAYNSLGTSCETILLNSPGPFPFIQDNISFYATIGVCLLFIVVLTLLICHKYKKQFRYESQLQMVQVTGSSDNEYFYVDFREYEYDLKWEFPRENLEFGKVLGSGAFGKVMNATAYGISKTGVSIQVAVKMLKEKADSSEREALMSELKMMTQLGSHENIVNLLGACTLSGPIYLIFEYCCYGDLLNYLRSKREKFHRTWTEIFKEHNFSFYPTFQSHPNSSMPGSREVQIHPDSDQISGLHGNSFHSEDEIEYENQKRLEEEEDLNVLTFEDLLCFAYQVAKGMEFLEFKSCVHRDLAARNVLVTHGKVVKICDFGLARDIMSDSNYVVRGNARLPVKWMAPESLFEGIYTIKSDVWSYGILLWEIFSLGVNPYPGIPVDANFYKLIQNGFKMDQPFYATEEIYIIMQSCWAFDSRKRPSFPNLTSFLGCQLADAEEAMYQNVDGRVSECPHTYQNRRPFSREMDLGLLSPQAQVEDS

[21] = target: G protein-coupled receptor kinase 3 (Homo sapiens) (UniProt P35626); details: Compound concentration 1000.0 nM
[22] = target: Interleukin-1 receptor-associated kinase 3 (Homo sapiens) (UniProt Q9Y616); details: Compound concentration 1000.0 nM
[23] = target: Mitogen-activated protein kinase 10 (Homo sapiens) (UniProt P53779); details: Compound concentration 1000.0 nM
[24] = test system: Mast/stem cell growth factor receptor Kit (Homo sapiens), P10721 [V559D,T670I]; details: Compound concentration 1000.0 nM
[25] = test system: Leucine-rich repeat serine/threonine-protein kinase 2 (Homo sapiens), Q5S007 [G2019S]; details: Compound concentration 1000.0 nM
[26] = target: Mitogen-activated protein kinase kinase kinase 13 (Homo sapiens) (UniProt O43283); details: Compound concentration 1000.0 nM
[27] = target: Mitogen-activated protein kinase kinase kinase kinase 5 (Homo sapiens) (UniProt Q9Y4K4); details: Compound concentration 1000.0 nM
[28] = target: Dual specificity mitogen-activated protein kinase kinase 2 (Homo sapiens) (UniProt P36507); details: Compound concentration 1000.0 nM
[29] = target: MAP kinase-interacting serine/threonine-protein kinase 2 (Homo sapiens) (UniProt Q9HBH9); details: Compound concentration 1000.0 nM
[30] = target: Myosin-IIIa (Homo sapiens) (UniProt Q8NEV4); details: Compound concentration 1000.0 nM
[31] = test system: Phosphatidylinositol 4,5-bisphosphate 3-kinase catalytic subunit alpha isoform (Homo sapiens), P42336 [C420R]; details: Compound concentration 1000.0 nM
Sequence of Phosphatidylinositol 4,5-bisphosphate 3-kinase catalytic subunit alpha isoform (Homo sapiens), P42336 [C420R] (P42336 whole entry C420R, canonical isoform): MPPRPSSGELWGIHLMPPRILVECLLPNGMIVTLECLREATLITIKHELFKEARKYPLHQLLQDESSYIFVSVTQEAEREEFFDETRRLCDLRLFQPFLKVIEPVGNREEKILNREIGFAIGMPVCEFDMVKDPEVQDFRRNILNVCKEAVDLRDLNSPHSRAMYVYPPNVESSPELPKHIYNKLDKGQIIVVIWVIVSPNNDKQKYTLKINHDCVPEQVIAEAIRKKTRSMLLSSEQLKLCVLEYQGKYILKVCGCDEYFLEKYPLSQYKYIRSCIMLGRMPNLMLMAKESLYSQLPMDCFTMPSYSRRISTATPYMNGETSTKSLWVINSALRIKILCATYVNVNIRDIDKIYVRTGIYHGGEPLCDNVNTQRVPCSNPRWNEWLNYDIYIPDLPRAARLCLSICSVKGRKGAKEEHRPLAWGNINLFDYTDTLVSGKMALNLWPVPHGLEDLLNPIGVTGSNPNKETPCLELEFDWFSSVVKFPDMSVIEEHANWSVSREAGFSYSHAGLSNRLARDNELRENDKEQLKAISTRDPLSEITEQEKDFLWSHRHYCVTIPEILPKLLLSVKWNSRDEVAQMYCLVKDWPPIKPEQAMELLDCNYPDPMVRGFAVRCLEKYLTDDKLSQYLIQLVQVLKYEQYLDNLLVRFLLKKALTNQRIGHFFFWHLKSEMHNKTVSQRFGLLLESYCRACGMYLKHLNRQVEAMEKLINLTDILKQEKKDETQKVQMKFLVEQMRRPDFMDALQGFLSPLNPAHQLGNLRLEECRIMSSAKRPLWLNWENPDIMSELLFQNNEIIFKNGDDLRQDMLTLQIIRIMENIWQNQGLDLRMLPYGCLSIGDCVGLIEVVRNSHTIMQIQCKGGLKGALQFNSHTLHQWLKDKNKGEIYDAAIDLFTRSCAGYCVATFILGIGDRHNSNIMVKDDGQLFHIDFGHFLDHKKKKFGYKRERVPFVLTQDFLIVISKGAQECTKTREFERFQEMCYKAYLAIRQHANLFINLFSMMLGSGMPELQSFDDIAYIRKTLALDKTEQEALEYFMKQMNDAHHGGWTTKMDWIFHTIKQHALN

[32] = target: cAMP-dependent protein kinase catalytic subunit beta (Homo sapiens) (UniProt P22694); details: Compound concentration 1000.0 nM
[33] = target: Protein kinase C iota type (Homo sapiens) (UniProt P41743); details: Compound concentration 1000.0 nM
[34] = target: Serine/threonine-protein kinase RIO1 (Homo sapiens) (UniProt Q9BRS2); details: Compound concentration 1000.0 nM
Sequence of Serine/threonine-protein kinase RIO1 (Homo sapiens) (Q9BRS2 whole entry): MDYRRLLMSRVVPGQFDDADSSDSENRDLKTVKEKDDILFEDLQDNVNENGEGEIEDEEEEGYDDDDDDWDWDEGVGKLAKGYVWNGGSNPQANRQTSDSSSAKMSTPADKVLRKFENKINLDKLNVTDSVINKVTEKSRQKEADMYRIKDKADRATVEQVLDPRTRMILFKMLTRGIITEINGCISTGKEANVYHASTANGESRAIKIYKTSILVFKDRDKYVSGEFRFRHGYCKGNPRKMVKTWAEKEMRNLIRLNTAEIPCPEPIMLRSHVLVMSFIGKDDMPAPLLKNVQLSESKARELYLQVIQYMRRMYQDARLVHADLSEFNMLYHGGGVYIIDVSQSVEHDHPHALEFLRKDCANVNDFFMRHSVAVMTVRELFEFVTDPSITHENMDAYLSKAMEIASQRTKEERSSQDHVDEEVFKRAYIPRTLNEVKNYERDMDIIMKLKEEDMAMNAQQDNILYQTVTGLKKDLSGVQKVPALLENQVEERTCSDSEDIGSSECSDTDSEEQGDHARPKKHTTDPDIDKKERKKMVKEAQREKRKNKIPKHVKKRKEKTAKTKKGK

[35] = target: Rho-associated protein kinase 1 (Homo sapiens) (UniProt Q13464); details: Compound concentration 1000.0 nM
[36] = target: Ribosomal protein S6 kinase alpha-4 (Homo sapiens) (UniProt O75676); details: Compound concentration 1000.0 nM
[37] = target: Proto-oncogene tyrosine-protein kinase Src (Homo sapiens) (UniProt P12931); details: Compound concentration 1000.0 nM
Sequence of Proto-oncogene tyrosine-protein kinase Src (Homo sapiens) (P12931 2-536 limits assumed): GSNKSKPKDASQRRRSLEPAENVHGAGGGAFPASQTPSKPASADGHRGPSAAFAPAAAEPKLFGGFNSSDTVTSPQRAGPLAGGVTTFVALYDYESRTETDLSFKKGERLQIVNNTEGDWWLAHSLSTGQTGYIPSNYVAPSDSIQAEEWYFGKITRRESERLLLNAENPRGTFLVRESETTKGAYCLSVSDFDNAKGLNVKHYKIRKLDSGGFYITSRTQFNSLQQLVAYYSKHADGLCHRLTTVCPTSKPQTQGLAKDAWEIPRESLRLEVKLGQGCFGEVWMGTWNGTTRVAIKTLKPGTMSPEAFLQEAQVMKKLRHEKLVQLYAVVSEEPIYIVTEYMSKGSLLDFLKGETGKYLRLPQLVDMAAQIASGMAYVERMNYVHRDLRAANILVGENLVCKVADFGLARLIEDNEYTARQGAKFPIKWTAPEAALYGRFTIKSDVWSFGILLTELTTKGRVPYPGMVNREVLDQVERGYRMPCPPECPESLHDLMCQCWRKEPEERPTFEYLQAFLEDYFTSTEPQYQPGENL

[38] = target: Serine/threonine-protein kinase 35 (Homo sapiens) (UniProt Q8TDR2); details: Compound concentration 1000.0 nM
[39] = target: Serine/threonine-protein kinase TAO2 (Homo sapiens) (UniProt Q9UL54); details: Compound concentration 1000.0 nM
[40] = target: Tyrosine-protein kinase receptor Tie-1 (Homo sapiens) (UniProt P35590); details: Compound concentration 1000.0 nM
[41] = target: Transient receptor potential cation channel subfamily M member 6 (Homo sapiens) (UniProt Q9BX84); details: Compound concentration 1000.0 nM
[42] = target: Serine/threonine-protein kinase 32B (Homo sapiens) (UniProt Q9NY57); details: Compound concentration 1000.0 nM
[43] = target: D(3) dopamine receptor (Homo sapiens) (UniProt P35462); details: Compound concentration 10.0 uM
Sequence of D(3) dopamine receptor (Homo sapiens) (P35462 whole entry): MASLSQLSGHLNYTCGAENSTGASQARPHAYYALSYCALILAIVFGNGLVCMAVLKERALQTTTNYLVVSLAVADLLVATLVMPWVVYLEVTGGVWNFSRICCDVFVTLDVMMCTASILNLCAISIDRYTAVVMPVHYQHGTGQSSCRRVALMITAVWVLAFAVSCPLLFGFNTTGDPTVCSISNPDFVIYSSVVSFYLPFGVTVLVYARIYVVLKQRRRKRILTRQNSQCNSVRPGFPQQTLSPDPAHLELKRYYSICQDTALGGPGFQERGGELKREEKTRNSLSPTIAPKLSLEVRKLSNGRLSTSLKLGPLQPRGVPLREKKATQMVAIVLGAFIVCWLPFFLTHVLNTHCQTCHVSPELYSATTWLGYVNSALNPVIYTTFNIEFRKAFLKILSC

[44] = target: Sodium-dependent noradrenaline transporter (Homo sapiens) (UniProt P23975); details: Compound concentration 10.0 uM
[45] = target: Histamine H3 receptor (Homo sapiens) (UniProt Q9Y5N1); details: Compound concentration 10.0 uM

Compound: O=C(NCc1ncc(C(F)(F)F)cc1Cl)c1ccc2c(c1)C1(CCS(=O)(=O)CC1)[C@@H](C1CC1)N2S(=O)(=O)c1ccc(F)cc1 [BAY-786]
- residual activity [1]: 100%
- residual activity [2]: 68%
- residual activity [3]: 100%
- residual activity [4]: 1.9%
- residual activity [5]: 96%
- residual activity [6]: 100%
- residual activity [7]: 41%
- residual activity [8]: 82%
- residual activity [9]: 63%
- residual activity [10]: 67%
- residual activity [11]: 67%
- residual activity [12]: 100%
- residual activity [13]: 67%
- residual activity [14]: 86%
- residual activity [15]: 85%
- residual activity [16]: 94%
- residual activity [17]: 77%
- residual activity [18]: 83%
- residual activity [19]: 100%
- residual activity [20]: 67%
- residual activity [21]: 100%
- residual activity [22]: 100%
- residual activity [23]: 73%
- residual activity [24]: 87%
- residual activity [25]: 100%
- residual activity [26]: 0%
- residual activity [27]: 100%
- residual activity [28]: 78%
- residual activity [29]: 76%
- residual activity [30]: 100%
- residual activity [31]: 77%
- residual activity [32]: 85%
- residual activity [33]: 100%
- residual activity [34]: 78%
- residual activity [35]: 82%
- residual activity [36]: 96%
- residual activity [37]: 98%
- residual activity [38]: 93%
- residual activity [39]: 64%
- residual activity [40]: 95%
- residual activity [41]: 92%
- residual activity [42]: 96%
- inhibition [43]: 3.82%
- inhibition [44]: 3.76%
- inhibition [45]: 6.92%

Compound: O=C(NCc1ncc(C(F)(F)F)cc1Cl)c1ccc2c(c1)C1(CCS(=O)(=O)CC1)[C@H](C1CC1)N2S(=O)(=O)c1ccc(F)cc1 [BAY-784]
- residual activity [1]: 100%
- residual activity [2]: 83%
- residual activity [3]: 100%
- residual activity [4]: 68%
- residual activity [5]: 91%
- residual activity [6]: 98%
- residual activity [7]: 100%
- residual activity [8]: 86%
- residual activity [9]: 80%
- residual activity [10]: 78%
- residual activity [11]: 66%
- residual activity [12]: 100%
- residual activity [13]: 78%
- residual activity [14]: 92%
- residual activity [15]: 100%
- residual activity [16]: 86%
- residual activity [17]: 100%
- residual activity [18]: 81%
- residual activity [19]: 100%
- residual activity [20]: 81%
- residual activity [21]: 99%
- residual activity [22]: 99%
- residual activity [23]: 88%
- residual activity [24]: 100%
- residual activity [25]: 100%
- residual activity [26]: 0%
- residual activity [27]: 82%
- residual activity [28]: 88%
- residual activity [29]: 83%
- residual activity [30]: 100%
- residual activity [31]: 77%
- residual activity [32]: 96%
- residual activity [33]: 81%
- residual activity [34]: 100%
- residual activity [35]: 94%
- residual activity [36]: 100%
- residual activity [37]: 98%
- residual activity [38]: 100%
- residual activity [39]: 81%
- residual activity [40]: 100%
- residual activity [41]: 81%
- residual activity [42]: 100%
- inhibition [43]: 9.45%
- inhibition [44]: 1.03%
- inhibition [45]: -8.26%
